{"source": "paper PMC11858854", "about": "“In Vitro and In Vivo Assessment of Pharmacokinetic Profile of Peramivir in the Context of Inhalation Therapy” (Pharmaceuticals, 2025)", "key": {"[1]": {"test_system": "NCI-H441/dTHP co-culture model", "assay": "Bidirectional transport, NCI-H441/dTHP co-culture model", "type": "in vitro ADME, human", "conditions": "NCI-H441/dTHP, 2 μM", "procedure": "THP-1 cells were cultured in RPMI-1640 medium (Gibco, Thermo, CA, USA) supplemented with 10% FBS, PS (100 U/mL), and β-Mer (0.05 mM) at 37 °C in a humidified 5% CO2 incubator, and the medium was changed every other day. THP-1 cells were seeded at 4 × 10^5 cells/mL in six-well plates and induced for 48 h by adding medium containing a final concentration of 100 ng/mL PMA.\nThen, the differentiated cells were seeded at 5 × 10^4 cells/well on the surface of NCI-H441 cells 10 days after air–liquid culture and continued to co-culture for 24 h.\nWe removed the liquid from the apical and basolateral of the Transwell, rinsed the cells three times with a buffer containing HBSS, 10 mM Hepes, and 0.1% BSA (Buffer A), and then added Buffer A (100 µL for the apical side and 600 µL for the basolateral side) for pre-incubation for 30 min at 37 °C. For the transport studies in the apical to basolateral (A-B) direction, 100 μL of pre-warmed test solution (Buffer A containing 2 µM positive control drugs or peramivir) was added to the apical side, while 600 μL of pre-warmed assay buffer, a buffer containing HBSS, 10 mM Hepes, and 1% BSA (Buffer B), was added to the basolateral compartment."}, "human OCTN1": {"target": "T1, human OCTN1 (Homo sapiens, UniProt Q9H015)", "T1 construct": "Huidi Jiang, Zhejiang University; host or cells: MDCK (MDCK-OCTN1); control MDCK-MOCK", "T1 sequence (Q9H015 1-551)": "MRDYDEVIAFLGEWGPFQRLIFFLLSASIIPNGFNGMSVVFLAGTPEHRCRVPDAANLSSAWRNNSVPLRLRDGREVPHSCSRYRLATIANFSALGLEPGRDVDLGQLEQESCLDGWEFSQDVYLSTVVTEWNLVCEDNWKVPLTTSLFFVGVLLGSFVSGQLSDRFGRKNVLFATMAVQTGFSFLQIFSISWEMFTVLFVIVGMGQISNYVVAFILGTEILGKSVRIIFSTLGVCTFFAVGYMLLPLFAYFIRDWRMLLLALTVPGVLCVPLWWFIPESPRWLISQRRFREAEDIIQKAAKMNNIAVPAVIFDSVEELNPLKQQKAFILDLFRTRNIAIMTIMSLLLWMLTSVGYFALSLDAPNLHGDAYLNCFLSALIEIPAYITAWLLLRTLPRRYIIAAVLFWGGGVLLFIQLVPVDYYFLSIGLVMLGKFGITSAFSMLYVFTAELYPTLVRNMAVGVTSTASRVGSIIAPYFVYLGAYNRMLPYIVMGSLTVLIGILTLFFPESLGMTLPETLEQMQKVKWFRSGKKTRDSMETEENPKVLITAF", "assay": "Uptake study, MDCK cells overexpressing OCTN1", "type": "in vitro ADME", "procedure": "All cells (HEK293-MOCK, HEK293-OCT1, HEK293-OCT2, MDCK-MOCK, MDCK-OCTN1, and MDCK-OCTN2) were cultured in DMEM medium supplemented with 10% FBS and PS (100 U/mL), at 37 °C in a humidified 5% CO2 incubator. Cells were seeded on 24-well plates at a density of 1 × 10^4 cells/well. For the uptake assay, the DMEM media were removed, and the cells were washed with pre-warmed Hank’s buffer three times (1 mL/well). Subsequent addition of inhibitor-free/inhibitor-containing buffer was pre-incubated for 30 min at 37 °C prior to the initiation of the uptake experiment. After the pre-incubating buffer was removed, 200 μL of pre-warmed test drugs solution (Hank’s buffer containing 10 µM and 50 µM peramivir) or a mixture of test drugs and inhibitor was added into each well, and the plates were incubated at 37 °C for 5 min. At the end of incubation, cells were washed and lysed as described above. The cell lysate was collected and stored at −40 °C for LC-MS/MS analysis and protein measurement. The negative control (MOCK cells) and positive control were included simultaneously."}, "[2]": {"assay": "Tissue distribution study in rats", "type": "in vivo", "conditions": "rat", "procedure": "Tissue distribution characteristics were studied following different deliveries of i.v. 3 mg/kg, i.t. 0.3 mg/kg, and i.t. 3 mg/kg in rats. The rats were euthanized at 5 min, 30 min, 1 h, 4 h, 12 h, and 24 h after administration. Blood was collected by puncture of the fundus venous plexus, and bronchoalveolar lavage was performed to obtain bronchoalveolar lavage (BAL) fluid samples, and then the main tissues were obtained by dissection. All the tissues were thoroughly rinsed in ice physiological saline, then weighed and stored at −40 °C for analysis.\nWhole blood was placed in EP tubes containing sodium heparin, and plasma was extracted by centrifugation at 4 °C, 5000× g for 10 min. […] Drug concentrations in the samples were determined using the LC-MS/MS method and drug concentrations in the BAL were converted to drug concentrations in epithelial lining fluid (ELF) using the urea nitrogen correction method.\nThe apparent volume of ELF in BAL fluid was determined by the urea dilution method described by Rennard. The estimated concentration of drugs in ELF was calculated as follows:CELF = CBAL × (UPlasma/UBAL)(1) where CBAL is the measured drug concentration in BAL fluid and UPlasma and UBAL are the measured concentrations of urea nitrogen in plasma and BAL fluid, respectively.\nThe Kp of each tissue was calculated as follows:Kp = AUC(0–t, tissue)/AUC(0–t, plasma)(2)"}, "LLC-PK1 cells": {"test_system": "LLC-PK1 cells", "assay": "Permeability assay, LLC-PK1-MOCK cells", "type": "in vitro ADME", "conditions": "LLC-PK1, 2 μM, Mean ± SD, n = 3", "method": "When the cell transport system was mature in culture, experiments were performed. […] When assessing permeability in basolateral to apical (B-A) direction, 100 μL of pre-warmed Buffer B and 600 μL of pre-warmed test solutions were added to the apical and basolateral compartments, respectively. The Transwells® were placed in an incubator at 37 °C and 5% CO2 for a duration of 2 h. At the end of the incubation period, the samples in the apical and basolateral sides were collected separately and were briefly kept at a temperature of −40 °C for LC-MS/MS analysis. […] The cells were transferred to Transwell® plates (Corning, NY, USA) at a density of 2 × 10^4 cells/well with 200 μL of cell suspension per well, while 850 μL of complete medium was added to the basolateral chamber. […] The samples were collected separately and were briefly kept at a temperature of −40 °C for LC-MS/MS analysis."}, "[3]": {"design": "method as in PMID 15196586", "conditions": "cited from earlier work"}}}
{"smiles": "CCC(CC)[C@H](NC(C)=O)[C@@H]1[C@H](O)[C@@H](C(=O)O)C[C@H]1N=C(N)N", "note": "[Peramivir]", "values": [{"measurement": "ER", "setting": "[1]", "result": 0.75}, {"measurement": "Papp A-B", "setting": "[1]; Mean ± SD, n = 3", "result": "1.19 ± 0.16 ×10−6 cm/s"}, {"measurement": "Papp B-A", "setting": "[1]; Mean ± SD, n = 3", "result": "0.9 ± 0.17 ×10−6 cm/s"}, {"measurement": "OCTN1 substrate status", "setting": "human OCTN1; MDCK-OCTN1", "result": "does not conclusively establish peramivir as a substrate for OCTN1"}, {"measurement": "transporter-mediated uptake ratio (UR value)", "setting": "human OCTN1; MDCK-OCTN1, 50 μM", "result": 3.19}, {"measurement": "inhibition ratio (IR value)", "setting": "human OCTN1; MDCK-OCTN1, 50 μM, inhibitor quinidine (500 μM)", "result": 40.22, "unit": "%"}, {"measurement": "exposure in alveolar epithelial lining fluid after inhalation relative to equivalent i.v. dose", "setting": "[2]", "result": "exceeding 370 times"}, {"measurement": "tissue–plasma partition coefficient, Kp", "setting": "[2]; intravenous, all tissues except renal and alveolar epithelial lining", "result": "< 1"}, {"measurement": "Papp A-B", "setting": "LLC-PK1 cells", "result": "BLQ"}, {"measurement": "Papp B-A", "setting": "LLC-PK1 cells", "result": "0.21 ± 0.04 ×10−6 cm/s"}, {"measurement": "BDDCS category", "setting": "[3]; high solubility/low metabolism", "result": "BDDCS-III"}, {"measurement": "BCS category", "setting": "[3]; high solubility/low permeability", "result": "BCS-III"}]}
